Experiments:
[1] = MRI relaxivity of Mn-PDA contrast agents with BAPTA, with and without calcium, in buffer; type: physicochemical; settings: 1.1 equivalents BAPTA, equimolar Ca^2+
Description: To examine the potential of Mn-PDA contrast agents to function as building blocks for the sensor design of FIG. 1A, MRI measurements were performed to assess the potential of BAPTA to interact with three paramagnetic chelates (FIG. 1A, inset). Addition of 1.1 equivalents of BAPTA to two of the Mn-PDA complexes, MnL1 and MnL3, produced significant effects on the T1-weighted MRI contrast induced by these compounds in buffer. These BAPTA-dependent contrast changes were reversed by addition of equimolar Ca^2+ (FIG. 1B). This was consistent with Mn-PDA moieties competing with Ca^2+ for binding to BAPTA molecules. The changes were quantified in terms of T1 relaxivity (r1) values, which were defined as the slope of the T1 relaxation rate (1/T1=R1) vs. concentration of each paramagnetic complex.
Most MRI data were acquired on a 7 T Bruker Biospec0 system using a T1-weighted 2D gradient echo sequence (echo time, TE=5 ms, repetition time, TR=100 ms; flip angle, FA=65 degrees (°)). Longitudinal relaxivity (r1) measurements were acquired using a 2D spin echo sequence (TE=11 ms, TR=125, 200, 400, 800, 1500, 3000, and 5000 ms), with in-plane resolution of 200×200 microns squared ((μm)^2) and 2 mm slice thickness. […] Stimulus-dependent R1 changes in cells were calculated as ΔR1/R1=[R1(incubated cells)−R1(naive cells)]/R1(naive cells). […]

[2] = Optical spectra / mass spectrometry of Mn-PDA complexes incubated with BAPTA over time; type: physicochemical; settings: mixture with BAPTA, 0 h vs 24 h; confirmed by mass spectrometry
Excerpt: In contrast, the MnL1 mixture with BAPTA developed a strong peak for uncomplexed L1 (m/z=347.37), indicating dissociation of the MnL1 complex.

spectroscopic behavior in the presence of BAPTA over time (stability) [2]: sharp changes indicative of degradation
SMILES: O=C1c2ccccc2[O][Mn-]23[O]c4ccccc4C(=O)[N]2c2ccccc2[N]13 [MnL1]
Calcium-dependent changes in r1 in the presence of BAPTA [1]: 105%

Reference: US10933146B2, “Cell-permeable imaging sensors and uses thereof” (Massachusetts Institute of Technology, priority 2017, dated 2021)
